# Laboratory results reported in US10420770B2, “Compositions and methods for treating dementia” (EIP Pharma, LLC, priority 2016, dated 2019).
# “And” between values parts separate entries of the source, which are not always exact repeats. Equal values may be shown once.
# How the values were obtained:
# [1] = Plasma pharmacokinetics, 12-week Phase IIa study (Example 1); format: in vivo, human; details: 40 mg dose level, twice daily, 12-week study
# Experimental: (§1) Investigators and patients were blind to the dosage strength. […] Patients were instructed to take doses within 30 minutes following a meal or snack, with each dose taken approximately 12 hours apart at the same times each day throughout the study.
# Dosing started on Day 1 following completion of all baseline procedures. During the treatment period, subjects returned to the clinic on Days 14, 28, 56, and 84. […] Dynamic PET scanning with fill quantitative analysis was performed at baseline and at the end of treatment.
# (§2) Sixteen subjects completed the full 12 weeks of treatment and all were included in safety analyses. […] In the PK analysis, due to the sparse sampling collection design, the time period from 0 to 24 hours post-dose was divided into 4 blocks in order to show the distribution of concentrations over time. […] Average blood concentration of about 8 ng/mL at the 40 mg dose level was observed. This is higher than the 5 ng/mL.
# [2] = Brain versus blood exposure in animals (preclinical PK); format: in vivo; details: brain relative to peripheral blood, read-out: exposure in the brains of animals relative to peripheral blood
# interleukin-8 (IL-8) = assay: CSF cytokine measurement (Mesoscale Discovery), IL-8, 6-week study; format: in vivo, human; details: high exposure group by plasma AUC(0-8) on Day 1
# Experimental: Cytokine measurements of CSF samples were done to assess the balance of pro-inflammatory versus anti-inflammatory cytokines. The t-helper type 1/t-helper type 2 (TH1/TH2) multiplex cytokine (IFN-γ, IL-1β, IL-2, IL-4, IL-5, IL-8, IL-10, IL-12p70, IL-13, TNFα ) panel by Mescoscale Discovery were utilized to inform on effects on the relative balance of pro-inflammatory cytokines (e.g. IL-1β, TNFα) versus anti-inflammatory cytokines (e.g., IL-10).
# (§3) Target engagement was assessed through the evaluation of the effect of drug treatment on CSF biomarkers. CSF was collected at 6 time-points over 24 hours at baseline (the 24 hours prior to first dose) and again at 6 time-points over 24 hours near the end of treatment on Day 40. The samples were evaluated by the Mesoscale Discovery ELISA platform for multiple cytokines ((IFN-γ, IL-1β, IL-2, IL-4, IL-5, IL-8, IL-12 protein 70, IL-13, TNFα, and CSF) and for amyloid-beta peptides (Aβ 38/40/42).
# [3] = system: neurofilament light chain (NFL); assay: CSF neurofilament light chain (NFL), 6-week study; format: in vivo, human; details: baseline to day 40
# Experimental: Phospho-tau and NFL proteins from CSF sampling were evaluated as markers of the effects of inflammation on neurodegeneration and axonopathy, respectively.
# [4] = Safety and tolerability, 12-week Phase IIa study (Example 1); format: in vivo, human; details: 40 mg or 125 mg twice daily, 12 weeks
# Experimental: as §1, §2
# [5] = system: DS (Down's Syndrome) human fibroblasts; assay: EEA1-labeled early endosomes in Down's Syndrome human fibroblasts (Example 4); format: cell-based; details: 0, 1, 10, or 50 nM VX-745 for 24 hours
# From the text: Down's Syndrome (DS, Trisomy 21) derived human fibroblasts provide a robust system for studying Alzheimer's related endosomal dysfunction as one of the Familial Alzheimer's disease (FAD) genes, Amyloid Precursor Protein (APP), is expressed on chromosome 21 and as a result inherently DS individuals overexpress APP and develop an Alzheimer's type dementia as they grow older beyond age 40 (Jiang, Y, et. al., “Alzheimer's-related endosome dysfunction in Down syndrome is Aβ-independent but requires APP and is reversed by BACE-1 inhibition,” PNAS 107:1630-1635 (2010)).
# In vitro, DS human fibroblasts show increased numbers and enlarged early endosomes by electron microscopy or by fluorescence staining with antibodies to EEA1 (Early Endosome Antigen 1). […] After incubation, the cells were fixed and incubated with anti-EEA1 antibody to label early endosomes.
# [6] = Plasma and CSF pharmacokinetics, 6-week Phase IIa study (Example 2); format: in vivo, human
# Experimental: Investigators and patients were blinded to the dosage strength. The first 3 patients were randomly assigned to receive either 40 or 125 mg twice daily, with dosing level blinded. The remaining patients (up to 7 patients) received 40 mg twice daily on an open-label basis. […] Patients were instructed to eat a meal approximately 30 minutes before dosing with VX 745 with each dose taken approximately 12 hours (+/−3 hours) apart at the same times each day throughout the study.
# (§4) Quantitative EEG was conducted as a measure of the effects of inflammatory cytokines on synaptic function and the effects of modulation of p38 MAPK on synaptic plasticity. Brain fluorodeoxyglucose (FDG) PET scan was conducted at the Screening Visit and Day 40 to measure brain metabolism. In addition, CSF drug levels of VX-745 were obtained to confirm delivery of drug to the brain.
# butylcholinesterase = assay: CSF butylcholinesterase, 6-week study; format: in vivo, human; details: baseline to day 40
# brain metabolism = assay: Brain FDG PET scan, 6-week study; format: in vivo, human; details: baseline to day 40
# Experimental: as §4
# synaptic function = assay: Quantitative EEG, 6-week study; format: in vivo, human
# Experimental: as §4
# [7] = system: amyloid-beta peptides (Aβ 38/40/42); assay: CSF amyloid-beta peptides, 6-week study; format: in vivo, human; details: baseline to Day 41; p=0.01 to p=0.047
# Experimental: Effects on CSF levels of Aβ peptides were evaluated as measures of the amyloidenic process, which is activated with aging and more so in patients with Alzheimer's disease.
# as §3
smiles,measurement,setting,value
O=c1ncn2nc(Sc3ccc(F)cc3F)ccc2c1-c1c(Cl)cccc1Cl [VX-745],Average blood concentration,[1],about 8 ng/mL
same,Kp,[2],~1.7
same,"CSF IL-8, Day 41 vs baseline at matched time points",interleukin-8 (IL-8),trend towards lower CSF IL-8
same,CSF levels of neurofilament light chain (NFL),[3],no change
same,liver transaminase elevations,[4],No liver transaminase elevations
same,serious adverse events,[4],No serious adverse events
same,tolerability,[4],well tolerated
same,average number of EEA1-labeled endosomes per DS cell,[5],significantly reduced
same,average size of EEA1-labeled endosomes in DS cells,[5],significantly reduced
same,average blood drug concentration (CAVG),[6]; 40 mg twice daily,8 ng/mL
same,expected VX-745 concentrations in the brain,[6]; extrapolated from CSF/plasma and preclinical data,~14 ng/mL and ~30 nM
same,Kp,"[6]; human, CSF relative to plasma, oral, same time point, read-out: CSF drug levels as share of plasma drug levels",0.06
same,half-life,"[6]; human, oral, 6-week study plasma PK, read-out: terminal half-life (converted)",10 h
same,Cmax,"[6]; human, plasma, oral, 40 mg twice daily",23 ng/mL
same,CSF levels of butylcholinesterase,butylcholinesterase,no change
same,FDG-PET,brain metabolism,no change
same,EEG,synaptic function,potential positive pharmacodynamics effect
same,correlation between plasma drug concentration and increases in CSF Aβ 38/40/42 levels,[7],statistically significant correlation
